# Experimental data from US20260125382A1, “COMPOUNDS FOR INHIBITING OR DEGRADING CDK2 AND/OR CDK9 AND MEDICINAL USE THEREOF” (KOREA RESEARCH INSTITUTE OF CHEMICAL TECHNOLOGY, priority 2022, published 2026).
# How the values were obtained:
# [1] = molecular target: T1, CDK9 (Homo sapiens, UniProt P50750); test: CDK protein degradation activity (Western blotting), CDK9; type: cell-based; settings: MDA-MB-231 cells, 16 hours, Western blot
# T1 construct: endogenous in cells; host or cells: MDA-MB-231
# Outline: (§1)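 Protein levels were read by Western blot densitometry, tubulin serving as loading reference. Beforehand, MDA-MB-231 cells had been exposed for 16 hours to 100 nM, 1 μM or 10 μM compound, DMSO as control.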
# [2] = molecular target: T2, CDK2 (Homo sapiens, UniProt P24941); test: CDK protein degradation activity (Western blotting), CDK2; type: cell-based; settings: MDA-MB-231 cells, 16 hours, Western blot
# T2 construct: endogenous in cells; host or cells: MDA-MB-231
# Outline: as §1
# T1 sequence (P50750 whole entry): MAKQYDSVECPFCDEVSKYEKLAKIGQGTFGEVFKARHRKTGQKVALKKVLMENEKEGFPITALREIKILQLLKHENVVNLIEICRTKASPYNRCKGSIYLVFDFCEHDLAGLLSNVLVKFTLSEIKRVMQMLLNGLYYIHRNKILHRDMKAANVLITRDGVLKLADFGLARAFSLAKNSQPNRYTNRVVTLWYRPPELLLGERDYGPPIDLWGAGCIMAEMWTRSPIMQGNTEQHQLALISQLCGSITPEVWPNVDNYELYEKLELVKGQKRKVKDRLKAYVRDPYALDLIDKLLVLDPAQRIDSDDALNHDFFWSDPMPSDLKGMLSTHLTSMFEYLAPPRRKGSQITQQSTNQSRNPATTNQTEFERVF
Enzyme degradation CDK9 (% remaining) @ 0.1 μM [1],Enzyme degradation CDK9 (% remaining) @ 1 μM [1],Enzyme degradation CDK9 (% remaining) @ 10 μM [1],Enzyme degradation CDK2 (% remaining) @ 0.1 μM [2],Enzyme degradation CDK2 (% remaining) @ 1 μM [2],Enzyme degradation CDK2 (% remaining) @ 10 μM [2],SMILES
0/0/0%,0/0/0%,0/0/0%,20/20/20%,20/20/20%,20/20/20%,"Cc1cccc(C(=O)NC2CC(n3cnc4c(Nc5ccc(N6CCN(CC7CCN(C(=O)COc8ccc([C@@H]9CCC(=O)NC9=O)cc8)CC7)CC6)cc5)ncnc43)C2)n1 (stereo partly drawn) [Compound 443, N-((1s,3s)-3-(6-((4-(4-((1-(2-(4-(2,6-dioxopiperidin-3-yl)phenoxy)acetyl)piperidin-4-yl)methyl)piperazin-1-yl)phenyl)amino)-9H-purin-9-yl)cyclobutyl)-6-methylpicolinamide]"
0/0/0%,0/0/0%,0/0/0%,30/30/30%,30/30/30%,30/30/30%,"Cc1cccc(C(=O)N[C@H]2C[C@@H](n3cnc4c(Nc5ccc(N6CCN(CCC7CCN(C(=O)COc8ccc([C@@H]9CCC(=O)NC9=O)cc8)CC7)CC6)cc5)ncnc43)C2)n1 [Compound 444, N-((1s,3s)-3-(6-((4-(4-(2-(1-(2-(4-(2,6-dioxopiperidin-3-yl)phenoxy)acetyl)piperidin-4-yl)ethyl)piperazin-1-yl)phenyl)amino)-9H-purin-9-yl)cyclobutyl)-6-methylpicolinamide]"
20/20/20%,20/20/20%,20/20/20%,70/70/70%,70/70/70%,70/70/70%,"Cc1cccc(C(=O)N[C@H]2C[C@@H](n3cnc4c(Nc5ccc(N6CCN(CC7CCN(C(=O)C8CN(c9ccc%10c(c9)C(=O)N([C@H]9CCC(=O)NC9=O)C%10=O)C8)CC7)CC6)cc5C)ncnc43)C2)n1 [Compound 448, N-((1s,3s)-3-(6-((4-(4-((1-(1-(2-(2,6-dioxopiperidin-3-yl)-1,3-dioxoisoindolin-5-yl)azetidin-3-carbonyl)piperidin-4-yl)methyl)piperazin-1-yl)-2-methylphenyl)amino)-9H-purin-9-yl)cyclobutyl)-6-methylpicolinamide]"
10/10/10%,10/10/10%,10/10/10%,50%,40%,40%,"Cc1cccc(C(=O)NC2CC(n3cnc4c(Nc5ccc(N6CCN(CCC7CCN(C(=O)C8CCN(c9cc%10c(cc9F)C(=O)N([C@H]9CCC(=O)NC9=O)C%10=O)CC8)CC7)CC6)cc5)ncnc43)C2)n1 (stereo partly drawn) [Compound 449, N-((1s,3s)-3-(6-((4-(4-(2-(1-(1-(2-(2,6-dioxopiperidin-3-yl)-6-fluoro-1,3-dioxoisoindolin-5-yl)piperidin-4-carbonyl)piperidin-4-yl)ethyl)piperazin-1-yl)phenyl)amino)-9H-purin-9-yl)cyclobutyl)-6-methylpicolinamide]"
0/0/0%,0/0/0%,0/0/0%,50/50/50%,50/50/50%,50/50/50%,"Cc1cccc(C(=O)N[C@H]2C[C@@H](n3cnc4c(NCCC5CCN(CC6CCN(C(=O)C7CCN(c8cc9c(cc8F)C(=O)N(C8CCC(=O)NC8=O)C9=O)CC7)CC6)CC5)ncnc43)C2)n1 (stereo partly drawn) [Compound 450, N-((1s,3s)-3-(6-((2-(1-((1-(1-(2-(2,6-dioxopiperidin-3-yl)-6-fluoro-1,3-dioxoisoindolin-5-yl)piperidin-4-carbonyl)piperidin-4-yl)methyl)piperidin-4-yl)ethyl)amino)-9H-purin-9-yl)cyclobutyl)-6-methylpicolinamide]"
0/0/0%,0/0/0%,0/0/0%,50%,30%,30%,"O=C1CC[C@H](N2C(=O)c3ccc(N4CC(C(=O)N5CCC(CN6CCN(c7ccc(Nc8ncnc9c8ncn9C8CC(NC(=O)c9cccc(Cl)n9)C8)cc7)CC6)CC5)C4)cc3C2=O)C(=O)N1 (stereo partly drawn) [Compound 451, 6-chloro-N-((1s,3s)-3-(6-((4-(4-((1-(1-(2-(2,6-dioxopiperidin-3-yl)-1,3-dioxoisoindolin-5-yl)azetidin-3-carbonyl)piperidin-4-yl)methyl)piperazin-1-yl)phenyl)amino)-9H-purin-9-yl)cyclobutyl)picolinamide]"
0/0/0%,0/0/0%,0/0/0%,30/30/30%,30/30/30%,30/30/30%,"O=C1CCC(N2C(=O)c3ccc(N4CCC(C(=O)N5CCC(CN6CCN(c7ccc(Nc8ncnc9c8ncn9[C@H]8C[C@@H](NC(=O)c9cccc(Cl)n9)C8)cc7)CC6)CC5)CC4)cc3C2=O)C(=O)N1 (stereo partly drawn) [Compound 452, 6-chloro-N-((1s,3s)-3-(6-((4-(4-((1-(1-(2-(2,6-dioxopiperidin-3-yl)-1,3-dioxoisoindolin-5-yl)piperidin-4-carbonyl)piperidin-4-yl)methyl)piperazin-1-yl)phenyl)amino)-9H-purin-9-yl)cyclobutyl)picolinamide]"
0/0/0%,0/0/0%,0/0/0%,20%,20%,30%,"O=C1CC[C@H](N2C(=O)c3cc(F)c(N4CCC(C(=O)N5CCC(CN6CCN(c7ccc(Nc8ncnc9c8ncn9C8CC(NC(=O)c9cccc(Cl)n9)C8)cc7)CC6)CC5)CC4)cc3C2=O)C(=O)N1 (stereo partly drawn) [Compound 453, 6-chloro-N-((1s,3s)-3-(6-((4-(4-((1-(1-(2-(2,6-dioxopiperidin-3-yl)-6-fluoro-1,3-dioxoisoindolin-5-yl)piperidin-4-carbonyl)piperidin-4-yl)methyl)piperazin-1-yl)phenyl)amino)-9H-purin-9-yl)cyclobutyl)picolinamide]"
0/0/0%,0/0/0%,0/0/0%,30%,20%,10%,"N#Cc1cccc(C(=O)NC2CC(n3cnc4c(Nc5ccc(N6CCN(CC7CCN(C(=O)C8CN(c9ccc%10c(c9)C(=O)N([C@H]9CCC(=O)NC9=O)C%10=O)C8)CC7)CC6)cc5)ncnc43)C2)n1 (stereo partly drawn) [Compound 454, 6-cyano-N-((1s,3s)-3-(6-((4-(4-((1-(1-(2-(2,6-dioxopiperidin-3-yl)-1,3-dioxoisoindolin-5-yl)azetidin-3-carbonyl)piperidin-4-yl)methyl)piperazin-1-yl)phenyl)amino)-9H-purin-9-yl)cyclobutyl)picolinamide]"
0/0/0%,0/0/0%,0/0/0%,30%,20%,20%,"N#Cc1cccc(C(=O)N[C@H]2C[C@@H](n3cnc4c(Nc5ccc(N6CCN(CC7CCN(C(=O)C8CCN(c9ccc%10c(c9)C(=O)N(C9CCC(=O)NC9=O)C%10=O)CC8)CC7)CC6)cc5)ncnc43)C2)n1 (stereo partly drawn) [Compound 455, 6-cyano-N-((1s,3s)-3-(6-((4-(4-((1-(1-(2-(2,6-dioxopiperidin-3-yl)-1,3-dioxoisoindolin-5-yl)piperidin-4-carbonyl)piperidin-4-yl)methyl)piperazin-1-yl)phenyl)amino)-9H-purin-9-yl)cyclobutyl)picolinamide]"
0%,0%,10%,50%,60%,70%,"O=C1CC[C@H](N2C(=O)c3cc(F)c(N4CCC(C(=O)N5CCC(CN6CCN(c7ccc(Nc8ncnc9c8ncn9C8CC(NC(=O)Cc9ccccc9)C8)cc7)CC6)CC5)CC4)cc3C2=O)C(=O)N1 (stereo partly drawn) [Compound 456, N-((1s,3s)-3-(6-((4-(4-((1-(1-(2-(2,6-dioxopiperidin-3-yl)-6-fluoro-1,3-dioxoisoindolin-5-yl)piperidin-4-carbonyl)piperidin-4-yl)methyl)piperazin-1-yl)phenyl)amino)-9H-purin-9-yl)cyclobutyl)-2-phenylacetamide]"
20%,0%,0%,80%,60%,60%,"O=C1CC[C@H](N2C(=O)c3cc(F)c(N4CCC(C(=O)N5CCC(CCN6CCN(c7ccc(Nc8ncnc9c8ncn9[C@H]8C[C@@H](NC(=O)Cc9ccccc9)C8)cc7)CC6)CC5)CC4)cc3C2=O)C(=O)N1 [Compound 457, N-((1s,3s)-3-(6-((4-(4-(2-(1-(1-(2-(2,6-dioxopiperidin-3-yl)-6-fluoro-1,3-dioxoisoindolin-5-yl)piperidin-4-carbonyl)piperidin-4-yl)ethyl)piperazin-1-yl)phenyl)amino)-9H-purin-9-yl)cyclobutyl)-2-phenylacetamide]"
